{"source": "patent US20240358722A1", "about": "“METHODS OF ADMINISTERING FEDRATINIB” (Impact Biomedicines, Inc., priority 2021, published 2024)", "key": {"[1]": {"test": "Phase 1 crossover relative bioavailability study, Part 1: fedratinib plasma PK", "format": "in vivo, human", "details": "for AUC0-t / Cmax: plasma", "protocol": "(§1) An open-label, single-site, 2-part crossover study will be conducted in healthy adult subjects. This study will evaluate the RBA of 400 mg fedratinib when administered orally as contents of capsules dispersed in a nutritional supplement or via NG tube or administered orally as intact capsules with a nutritional supplement as a divided dose (200 mg BID) in comparison to intact capsules with a nutritional supplement. Each study part will consist of a randomized, multiple-sequence, open-label design. The study parts can be run in any order or in parallel. Subjects may participate in 1 part only. Each study part will consist of Screening, a Treatment phase (including baseline), and a Follow-up phone call. There will be a washout period of at least 12 days between each dose of fedratinib.\n(§2) Part 1 will consist of a randomized, 2-period, 2-sequence, open-label design. Subjects will be screened for eligibility. Subjects who meet all inclusion criteria and none of the exclusion criteria will return to the study center on Day-1 for protocol-specified assessments and the start of domiciling; subjects will remain domiciled at the study center throughout both study periods.\n(§3) On the evening before each dosing, all subjects will begin an overnight fast of at least 10 hours prior to dosing. No food or beverages (except water and any nutritional supplement administered with IP) will be allowed for at least 4 hours after dosing. Water is allowed as desired except for 1 hour before and 1 hour after each dosing. Each dose, with the exception of Treatment 2B, will be administered orally with approximately 240 mL noncarbonated, room temperature water. Dose modifications or interruptions are not permissible in this study.\nEach subject will receive the following treatments across 2 study periods: • Treatment 1A=oral administration of a single 400-mg dose of fedratinib (4×100-mg capsules) with a nutritional supplement (reference) • Treatment 1B=oral administration of a single 400-mg dose of fedratinib with contents of 4×100-mg capsules dispersed in a nutritional supplement (test)\n(§4) All planned doses will be administered with a commercially available nutritional supplement (e.g., Ensure Plus® or Boost Plus®). The chosen nutritional supplement will be used throughout the study. The volume of nutritional supplement to be administered with each dose will be (e.g., approximately 180 mL).\n(§5) Blood samples (approximately 3 mL each) for the measurement of fedratinib concentrations in plasma will collected at the following time points: • Treatment 1A, 1B, 2A and 2B: pre dose (0 hour) and at 0.5, 1, 1.5, 2, 3, 4, 6, 8, 12, 24, 48, 72, 120, 168, 192, and 240 hours post dose. • Treatment 2C: pre dose (0 hour) and at 0.5, 1, 1.5, 2, 3, 4, 6, 8, 12 (pre dose of the second dose), 12.5, 13, 13.5, 14, 15, 16, 18, 24, 48, 72, 120, 168, 192, and 240 hours post dose of the first dose.\n(§6) Fedratinib plasma PK concentrations will be measured using a validated liquid chromatography tandem mass spectrometry assay\nFedratinib plasma PK parameters will be calculated using noncompartmental methods. The following key PK parameters will be estimated as allowed by the data: • Maximum observed plasma concentration (Cmax) • Area under the plasma concentration-time curve (AUC) from time zero to the last\nTo estimate the RBA for Treatments 1B in comparison with Treatment 1A, an ANOVA with treatment, period, and sequence as fixed effects, and subject nested within sequence as a random effect will be performed on the natural log-transformed Cmax, AUC (0-T), and AUC (INF). The geometric means along with ratios of the geometric means (test/reference) and associated 90% confidence intervals will be presented."}, "[2]": {"test": "Phase 1 crossover relative bioavailability study, Part 2: fedratinib plasma PK", "format": "in vivo, human", "details": "for AUC0-∞: geometric mean, one participant excluded (pAUCe >20%); for AUC0-t / Cmax: n = 30, geometric mean, plasma", "protocol": "as §1\nas §2, with “Part 2” for “Part 1”, “randomized, 3-period, 6-sequence,” for “randomized, 2-period, 2-sequence,”, “throughout all” for “throughout both”\nas §3\nEach subject will receive the following treatments across 3 study periods: • Treatment 2A=oral administration of a single 400-mg dose of fedratinib (4×100-mg capsules) with a nutritional supplement (reference) • Treatment 2B=a single 400-mg dose of fedratinib, administered via NG tube as contents from 4×100-mg capsules dispersed into a nutritional supplement (test) • Treatment 2C=oral administration of 400-mg fedratinib with a nutritional supplement, given as a divided dose (i.e., BID [2×100-mg capsules each]) (test)\nPrior to administration of Treatment 2B, a nasogastric tube will be placed and an X-ray(s) will be performed to confirm correct placement of the nasogastric tube. Following administration of Treatment 2B, the nasogastric tube will be flushed with a volume of sterile water for irrigation equal to approximately 60 mL. Lidocaine gel or a suitable therapeutic equivalent may be used to reduce participant discomfort during the nasogastric tube insertion procedure. The timing from start of the nasogastric tube placement to dosing will be up to 4 hours. Actual time of dose administration will be referred to as “0 hour.”\nas §4, §5, §6\nFedratinib plasma PK parameters will be calculated using noncompartmental methods. […]"}, "[3]": {"system": "STAT3/STAT5", "details": "patient-derived cell lines expressing JAK2V617F and cells engineered to express WT JAK2 or JAK2V617F; cited from earlier work"}, "[4]": {"test": "Effect of meals on fedratinib pharmacokinetics", "format": "in vivo, human", "details": "high-fat, high-calorie meal (approx. 815 calories, 52% fat) and low-fat, low-calorie meal (approx. 162 calories, 6% fat)", "protocol": "(§7) Thus, fedratinib can be taken with or without regard to food. Moreover, the most frequently reported gastrointestinal (GI)-related treatment-emergent adverse events, such as nausea and vomiting, are less frequent in the fed state (62.5% and 16.7%,) than in the fasting state (87.5% and 66.7%) in subjects receiving a 500 mg fedratinib. Therefore, administration in the fed state, i.e., with nutritional supplement can reduce the incidence of nausea and vomiting."}, "[5]": {"system": "JAK2V617F-driven MPNs", "details": "mouse models of JAK2V617F-driven MPNs; cited from earlier work"}, "[6]": {"test": "GI-related treatment-emergent adverse events, fed vs fasting state", "format": "in vivo, human", "details": "subjects receiving 500 mg fedratinib", "protocol": "as §7"}, "[7]": {"system": "patient-derived cell lines expressing JAK2V617F and cells engineered to express WT JAK2 or JAK2V617F", "details": "cited from earlier work"}, "[8]": {"test": "Population pharmacokinetics analysis of cumulative data from 452 patients", "format": "in vivo, human", "details": "age 20 to 95 years, body weight 40 to 135 kg"}, "[9]": {"test": "Safety and tolerability in the Phase 1 study", "format": "in vivo, human", "details": "healthy adult subjects, fedratinib 400 mg, Parts 1 and 2", "from_the_text": "During the study, blood samples will be collected at prespecified times for PK. Subject safety will be monitored throughout the study. The study will be conducted in compliance with the International Council on Harmonization (ICH) of Technical Requirements for Registration of Pharmaceuticals for Human Use/Good Clinical Practice (GCP) and applicable regulatory requirements."}, "[10]": {"details": "Treatment 1A: fedratinib 400 mg oral capsules with nutritional supplement, n = 27, geometric mean"}, "[11]": {"details": "Treatment 1B (dispersed in nutritional supplement) vs Treatment 1A (intact capsules), 400 mg single dose"}, "[12]": {"details": "Treatment 1B: fedratinib 400 mg dispersed in supplement, oral, n = 27, geometric mean"}, "[13]": {"details": "Treatment 2A: fedratinib 400 mg oral capsules with nutritional supplement"}, "[14]": {"details": "Treatment 2B (via NG tube) vs Treatment 2A (capsules orally), 400 mg single dose"}, "[15]": {"details": "Treatment 2B: fedratinib 400 mg in supplement via NG tube"}, "[16]": {"details": "Treatment 2C (divided dose) vs Treatment 2A (single dose)"}, "[17]": {"details": "Treatment 2C: fedratinib 2 × 200 mg capsules, divided dose"}}, "note": "Counter-ions that a name gives are not always drawn."}
{"smiles": "Cc1cnc(Nc2ccc(OCCN3CCCC3)cc2)nc1Nc1cccc(S(=O)(=O)NC(C)(C)C)c1", "note": "[fedratinib, N-tert-butyl-3-[(5-methyl-2-{[4-(2-pyrrolidin-1-ylethoxy)phenyl]amino}pyrimidin-4-yl)amino] benzenesulfonamide dihydrochloride monohydrate]", "values": [{"measurement": "AUC0-∞", "setting": "[1]; Treatment 1A: fedratinib 400 mg oral capsules with nutritional supplement, geometric mean, one participant excluded (pAUCe >20%)", "result": 22260, "unit": "ng·h/mL"}, {"measurement": "AUC0-t", "setting": "[1]; [10]", "result": 20127, "unit": "ng·h/mL"}, {"measurement": "Cmax", "setting": "[1]; [10]", "result": 1319, "unit": "ng/mL"}, {"measurement": "ratio of geometric means (test/reference), AUC (0-T)", "setting": "[1]; [11]", "result": 102, "unit": "%"}, {"measurement": "ratio of geometric means (test/reference), AUC (INF)", "setting": "[1]; [11]", "result": 103, "unit": "%"}, {"measurement": "ratio of geometric means (test/reference), Cmax", "setting": "[1]; [11]", "result": 108, "unit": "%"}, {"measurement": "AUC0-∞", "setting": "[1]; [12]", "result": 22838, "unit": "ng·h/mL"}, {"measurement": "AUC0-t", "setting": "[1]; [12]", "result": 20598, "unit": "ng·h/mL"}, {"measurement": "Cmax", "setting": "[1]; [12]", "result": 1425, "unit": "ng/mL"}, {"measurement": "differences in exposure to fedratinib compared to a single dose of 4×100 mg capsules administered orally", "setting": "[2]; 400 mg, healthy adult participants, with nutritional supplement, via NG tube, or divided capsule dose", "result": "no significant differences"}, {"measurement": "AUC0-∞", "setting": "[2]; [13]", "result": 24963, "unit": "ng·h/mL"}, {"measurement": "AUC0-t", "setting": "[2]; [13]", "result": 22683, "unit": "ng·h/mL"}, {"measurement": "Cmax", "setting": "[2]; [13]", "result": 1388, "unit": "ng/mL"}, {"measurement": "ratio of geometric means between test and reference, AUC (0-T)", "setting": "[2]; [14]", "result": 84, "unit": "%"}, {"measurement": "ratio of geometric means between test and reference, AUC (INF)", "setting": "[2]; [14]", "result": 85, "unit": "%"}, {"measurement": "ratio of geometric means between test and reference, Cmax", "setting": "[2]; [14]", "result": 90, "unit": "%"}, {"measurement": "AUC0-∞", "setting": "[2]; [15]", "result": 21334, "unit": "ng·h/mL"}, {"measurement": "AUC0-t", "setting": "[2]; [15]", "result": 19111, "unit": "ng·h/mL"}, {"measurement": "Cmax", "setting": "[2]; [15]", "result": 1246, "unit": "ng/mL"}, {"measurement": "ratio of geometric means between test and reference, AUC (0-T)", "setting": "[2]; [16]", "result": 84, "unit": "%"}, {"measurement": "ratio of geometric means between test and reference, AUC (INF)", "setting": "[2]; [16]", "result": 85, "unit": "%"}, {"measurement": "ratio of geometric means between test and reference, Cmax", "setting": "[2]; [16]", "result": 46, "unit": "%"}, {"measurement": "AUC0-∞", "setting": "[2]; [17]", "result": 21304, "unit": "ng·h/mL"}, {"measurement": "AUC0-t", "setting": "[2]; [17]", "result": 19002, "unit": "ng·h/mL"}, {"measurement": "Cmax", "setting": "[2]; [17]", "result": 641.4, "unit": "ng/mL"}, {"measurement": "phosphorylation of STAT3/STAT5", "setting": "[3]", "result": "reduced"}, {"measurement": "effect on the pharmacokinetics of fedratinib of administration with a meal", "setting": "[4]", "result": "No clinically meaningful effect"}, {"measurement": "disease-associated symptoms, including leukopenia, anemia, splenomegaly, and fibrosis", "setting": "[5]", "result": "improved"}, {"measurement": "phosphorylation of STAT⅗", "setting": "[5]", "result": "blocked"}, {"measurement": "survival", "setting": "[5]", "result": "increased"}, {"measurement": "frequency of nausea (GI-related treatment-emergent adverse event)", "setting": "[6]; fasting state", "result": 87.5, "unit": "%"}, {"measurement": "frequency of vomiting (GI-related treatment-emergent adverse event)", "setting": "[6]; fasting state", "result": 66.7, "unit": "%"}, {"measurement": "frequency of nausea (GI-related treatment-emergent adverse event)", "setting": "[6]; fed state", "result": 62.5, "unit": "%"}, {"measurement": "frequency of vomiting (GI-related treatment-emergent adverse event)", "setting": "[6]; fed state", "result": 16.7, "unit": "%"}, {"measurement": "apoptosis", "setting": "[7]", "result": "increased"}, {"measurement": "cell proliferation", "setting": "[7]", "result": "inhibited"}, {"measurement": "effect on fedratinib PK of age, race, sex, body weight, mild or moderate hepatic impairment, mild renal impairment", "setting": "[8]", "result": "no clinically meaningful effect"}, {"measurement": "safety signals or treatment-emergent serious adverse events", "setting": "[9]", "result": "No new safety signals or treatment-emergent serious adverse events were reported"}]}
